Source: patent publication US20070082018A1, “Stabilized antimicrobial compositions and related methods of preparation” (priority 2005, published 2007)

Tests used:
[1] = Critical micelle concentration from surface tension (drop shape tensiometry); assay type: physicochemical; settings: for Critical micelle concentration (CMC): pure systems in water
Description: The critical micelle concentration of the pure systems was determined by plotting surface tension values against the logarithm of the total surfactant concentration. In order to determine the values of the critical micelle concentration, two linear fits were used. The first line was fitted to interval of concentration characterized by linear decrease of the surface tension and the second one to the region of concentration with the nearly constant surface tension. The point in which the fitted lines cross corresponds to the value of the critical micelle concentration (CMC). Here, the CMC is reached at a Mirenat concentration 0.25% v/v. This corresponds to 1.65 mmol.L^−1 of lauric arginate, 4 times lower than the literature value. Accordingly, all experiments will be carried out at a concentration largely exceeding the found value: 5% v/v.
Measurement of Surface Tension. A drop shape analysis tensiometer (Model DSA-G10 MK2, Kruss USA, Charlotte, N.C.) was used to determine surface tension of surfactant solutions (20.0±0.5° C.). The tensiometer determines the shape of pendant drops or bubbles through numerical analysis of the entire drop shape. The calculation of the interfacial tension from the drop shape is based on the Young-Laplace equation of capillarity and a detailed description can be found elsewhere (Dukhin, Kretschmer et al. 1995). Surface tension measurements were carried out at 20.0±0.5 ° C. To ensure accurate temperature control, an air bubble was formed at the inverted tip of a syringe that was submerged in the surfactant solution contained in a thermostatted cuvette. The syringe/cuvette system was positioned on an optical bench between the light source and a high-speed CCD camera. […] Samples were assumed to be equilibrated (the equilibrium dynamic interfacial tension DITeq) when measured values of DITeq remained unchanged for 30 minutes. […] Solution were equilibrated to 20° C. in a waterbath and density measured using a digital density meter (DMA 35N, Anton Paar GmbH, Graz, Austria). […]

Listeria monocytogenes = settings: cited from earlier work
[2] = Effect of salts on stability of surfactant solutions, visual observation of precipitation; assay type: physicochemical; settings: aqueous solutions, 5 wt % LAE
Description: Several experiments were conducted to examine the influence of salts on the stability of solutions containing Mirenat. The pH was not controlled here, as the buffer could mask the real behavior of the system. Still, it remained almost unchanged after the addition of salts. The added counterion (anion) contributed by the added electrolyte is assumed to be the same species as that contributed by the cationic surfactant, i.e. chloride ions Cl^−. Therefore, chloride salts, i.e. sodium chloride NaCl and calcium chloride CaCl2, were used. […] Precipitation occurred slowly, especially with low salt concentration where it could take up to 5 days. […] Almost every time precipitation took place, little or even no turbidity was noticeable. The results provided in Table 1 reflect qualitative visual observation.
Materials and Solution Preparation. Concentrated Mirenat®-N solution (25% lauric arginate, 75% PEG) was obtained from A&B Ingredients and used without further purification. Polyoxyethylene 20 sorbitan monolaureate (Tween 20), solvents (HCl, NaOH, purity >99%) and NaCl (>99%) was obtained from Sigma Chemical (St. Louis, Mo.). All solutions were prepared using doubles distilled and deionized water. Micellar solutions were prepared by gently mixing surfactants (Tween and LAE) at appropriate concentrations with double distilled water. As needed, pH was adjusted using HCl and NaOH.

Escherichia coli = settings: cited from earlier work
[3] = Solution turbidity (absorbance at 600 nm) and precipitation versus pH on NaOH titration; assay type: physicochemical; settings: aqueous solutions, 5 wt % LAE, pH 2-13
Description: The solution pH was increased stepwise by adding 0.5N NaOH and was recorded 2 min following each addition. It was plotted against the total amount of OH added for each of the solutions. Three minutes following each addition, a sub-sample was delivered via pipette into a cuvette for light absorption determination. […] However, this drastic change doesn't occur at the same hydroxide ions concentration for each of the different T20 concentrations. Indeed, it progressively shifts to the right of the graphic. Notice that beginning pH values are very close to each other for each solution. To the contrary, final pH values corresponding to the addition of 11 mmol OH^− are not the same and tend to decrease while the amount of T20 becomes higher. […]
pH would be expected to have an effect on precipitation as it affects the concentration of background ions H^+ and OH^− in the medium. […] It has been assumed that the initial rate of change in absorbance in the dispersions is a qualitative measure of the precipitation rate. […]
Solution Turbidity. Absorbance of solutions adjusted to pH or containing salts was measured by spectroscopy at a wavelength of 600 nm using a UV-Visible spectrophotometer (Spectronic 21D, Milton Roy, Rochester, N.Y.). […] The change in the of absorbance of solutions was used as an indirect measure to formation of larger particles an/or aggregates.

**Q.** For “Polyoxyethylene 20 sorbitan monolaureate [T20]”, which “Critical micelle concentration (CMC)” value [1] is on record?
**A.** 0.3 % v/v

**Q.** Which Minimum inhibitory concentration (Listeria monocytogenes) does the source give for `CCCCCCCCCCCC(=O)N[C@@H](CCCNC(=N)N)C(=O)OCC.Cl` [LAE, ethyl-N^alpha-dodecanoyl-L-arginate hydrochloride] here?
**A.** less than 10 ppm

**Q.** And the “CaCl2 concentration at which precipitates form” value [2]?
**A.** > 15 g/L

**Q.** And the “NaCl concentration at which precipitates form” value [2]?
**A.** > 10 g/L

**Q.** What about the Minimum inhibitory concentration (Escherichia coli) of the same compound?
**A.** less than 10 ppm

**Q.** And the “Critical micelle concentration (CMC) as lauric arginate” value ([1]; corresponds to Mirenat 0.25% v/v)?
**A.** 1.65 mmol/L

**Q.** And the “Critical micelle concentration (CMC)” value [1]?
**A.** 0.25 % v/v

**Q.** What about the “pH at which precipitates form” value [3] of the same compound?
**A.** > 4.1
